From a melting point compilation (Tetko et al.; mined from patent text by program, amines drawn as free bases though some values may be those of a salt)

melting point [°C] | SMILES
227 to 229 | COC(=O)c1cc2cc(OC)c(OC)cc2nc1N
86 to 90 | COc1ccc(-c2nc(C)ccc2OC2SCC(O)C(O)C2O)cc1 (stereo unspecified)
117 to 118 | COc1nc(C(F)F)cnc1NS(=O)(=O)c1cccc(Cl)c1Cl
166 | CC(C)(C)OC(=O)Nc1ccc2nc(N3CCOCC3)nn2c1
118 to 121 | CCc1cc(Oc2c(Cl)cc(C(F)(F)F)cc2Cl)n[nH]1
280 | O=C(NC(=O)c1ccc([N+](=O)[O-])cc1Cl)Nc1ccc(Cl)c(Cl)c1
95 to 96 | CC(C)OC(=O)OC1Oc2ccc(OS(=O)(=O)N(C)C)cc2C1(C)C (stereo unspecified)
179 to 183 | COc1ccc(C(=O)c2cc(C(=O)c3ccc(OC)cc3)cc(C(=O)c3ccc(OC)cc3)c2)cc1
104 to 106 | CCOc1nc2cccc(C(=O)OCOC(=O)C(C)(C)C)c2n1Cc1ccc(-c2ccccc2-c2nnn[nH]2)cc1
188 to 189 | COc1ccc(CC(C#N)=CNc2ccccc2)c2ccccc12
135 to 136 | COC(=O)c1cccc2nc(SCCCN3CCN(CC(=O)Nc4c(C(C)C)cccc4C(C)C)CC3)oc12
226 to 227 | COc1ccc([C@H]2NC(=S)N[C@H]2c2ccc(OC)cc2)cc1
94 to 96 | CCOC(=O)C(Cc1cccc(OC)c1OCc1ccccc1)(NC(C)=O)C(=O)OCC
178 to 183 | COC(=O)C(=C(C)O)N1C(=O)C(N2C(=O)c3ccccc3C2=O)C1SC(C)=O (stereo unspecified)
100 | CCCNC(=O)CCCc1ccc2c(c1)c(Cc1ccc(C(=O)OC)cc1OC)cn2CCC
260 | CCn1c(N)c(C(=O)NC)c(=O)c2ccc(-c3ccc(CC(=O)O)cc3)nc21
179 to 181 | CSc1nc(N)nc(-c2ccc([N+](=O)[O-])o2)n1
51 to 52 | COC(=O)c1cc(F)c(C)c(N)c1Cl
213 to 214 | COc1cc2c(cc1OC)C(C(c1ccccc1)N1CCCCC1)OC2=O (stereo unspecified)
58 | COc1ccc(S(=O)(=O)C(C)(Cc2ccccc2)C(=O)NO)cc1 (stereo unspecified)
126 to 127 | COc1ccc(C2CC(O)CCC2[N+](=O)[O-])cc1OC (stereo unspecified)
172 to 173 | CC(C)Cc1ccc(C(C)C(=O)NCCCCn2cnc3c(N)nc4ccccc4c32)cc1 (stereo unspecified)
305 to 307 | CCn1c(=O)c(-c2cc(OC)cc(OC)c2)cc2cnc(Nc3ccncc3)nc21
204 to 206 | CC(C)n1nc(-c2ncc(N)nc2-c2ccccc2)ccc1=O
128 to 129 | CN(CCNc1ccc2ncc(Br)n2n1)C(=O)OC(C)(C)C
> 300 | Nc1ncc2c(=O)c(C(=O)ON3C(=O)CCC3=O)c[nH]c2n1
140 to 142 | O=C(c1cc(O)c2occc2c1)c1ccco1

Continued, molecule first:

SMILES | melting point [°C]
CN(C)CC1CNc2cc(O)ccc2C1 (stereo unspecified) | 151 to 152
CCCCn1c(=O)c(=O)[nH]c2c3ccccc3ccc21 | 269
Cc1cccc(-c2n[nH]cc2-c2ccc(F)c(-c3cnn(C)c3)c2)n1 | 155 to 156
CC(C)Oc1n[nH]c(=O)n1C | 142
Cc1ccc(N(C=C(C#N)C#N)N=C(C#N)C#N)cc1 | 168 to 169
CCCN1C=CC=C2C(=O)NC(c3ccccc3OCC)N=C21 (stereo unspecified) | 134 to 137
O=C(CCc1ccccc1)NC(C(=O)Nc1n[nH]c(=S)s1)c1ccccc1 (stereo unspecified) | 196 to 198
CCCCCCCCCOC1C(O)C(CO)OC1n1cnc2c(=O)[nH]c(N)nc21 (stereo unspecified) | 258 to 259
CNC(=O)Nc1snc(S(C)(=O)=O)c1C(N)=O | 227 to 228
CS(=O)(=O)c1ccc(-c2cnn(CC(=O)c3csc4ccccc34)c(=O)c2-c2ccc(F)cc2)cc1 | 183 to 184
CN(N(S(C)(=O)=O)S(C)(=O)=O)S(C)(=O)=O | 123 to 124
CS(=O)(=O)OCCOc1ccc(CN2C(=O)C(=O)c3cc(S(=O)(=O)N4CCCC4COc4ccccc4)ccc32)cc1 (stereo unspecified) | 152 to 153
CC1CC(=O)N(c2ccc(Cl)cc2)C(=O)C1 | 163 to 164
Nc1ccccc1NC(=O)c1ccc(CNC(=O)OCc2cccnc2)cc1 | 159 to 160
CCC(C)CNC(=S)NS(=O)(=O)c1sc(Cl)cc1N (stereo unspecified) | 116 to 118
CS(=O)(=O)c1ccc(-n2nc(C(F)(F)F)cc2-c2ccc(-c3cnco3)cc2)cc1 | 178 to 180
c1ccc(CN2CCC3(CC2)SCCS3)cc1 | 51 to 53
O=C(O)c1cccc(NC(=O)C(CS)Cc2noc3ccccc23)c1 (stereo unspecified) | 207 to 209
CCC(=O)c1ccc(S(=O)(=O)c2ccccc2)cc1 | 83 to 84
CCOC(=O)C(Cc1ccc(OCCN2CCC(C)(C)c3cc(C(=NOC)c4ccccc4)ccc32)cc1)Oc1ccc(C(F)(F)F)cc1 (stereo unspecified) | 44 to 46
CC(C)N1Cc2ccc(F)cc2N(CCN2CC=C(c3c[nH]c4cc(F)ccc34)CC2)S1(=O)=O | 101 to 103
CCN(CC)C(=O)c1ccccc1-c1ccc(F)cc1 | 57 to 59

SMILES | melting point [°C]
Fc1cc(CNC(=S)NCC(F)(F)F)ccc1OCC(F)(F)F | 88 to 90
CCNC(=O)c1cc(C)c(C(c2cc(F)ccc2F)S(=O)(=O)c2ccc(F)cc2)cn1 (stereo unspecified) | 191 to 193
O=C1NCCSC1=NO | 233 to 235
O=C(NCc1cccc(-c2nc(=O)c3ccccc3s2)n1)c1ccccc1 | 214 to 215
CC(C)c1nn2ccccc2c1SC#N | 91 to 92.5
CC1(C)OCCc2c1[nH]c1ccccc21 | 142 to 144
O=C1c2ccccc2CCc2ncsc21 | 83 to 86
CC(C)c1cccc(C(C)C)c1NC(=O)N(C(C)C)C1COc2ccccc2C1 (stereo unspecified) | 169 to 172
CNc1nc2ccncc2[nH]1 | 256
Cc1ccc(-c2c(NS(=O)(=O)c3ccc(C(C)(C)COc4ncc(Br)cn4)cc3)ncnc2OCCOc2ncc(Br)cn2)cc1 | 156 to 158
N#CC(N)=C(C#N)N=Cc1cnn(-c2c(Cl)cc(OC(F)(F)F)cc2Cl)n1 | 199 to 201
O=C1N(c2ccc(Cl)cc2Cl)Cc2cnc(Nc3ccccc3)nc2N1c1cccc(CCO)c1 | 213 to 217
CCCCN1CC(C(=O)OC)N(S(=O)(=O)c2ccc(-c3ccc(Br)cc3)cc2)CC1=O (stereo unspecified) | 113 to 115
N#Cc1ncc(-c2ccccc2)nc1Cl | 143 to 145
O=c1[nH]cnc2c(CN[C@H](CO)[C@H](O)CO)c[nH]c12 | 230
CN(Cc1cccnc1)C(=N)NC#N | 141 to 143
CN(CCO)Cc1cc(NC(=N)c2cccs2)ccc1C1CCCC1 | 116 to 118
O=C(Nc1ccc(-n2nc(C(F)(F)F)cc2C(F)(F)F)cc1-n1nc(C(F)(F)F)cc1C(F)(F)F)c1ccc(F)cc1F | 114 to 115
CC(=O)N1CCN(c2c(F)c(C)c3c(=O)c(C(=O)O)cn(C4CC4)c3c2F)CC1 | 217 to 220
O=c1oc2ccccc2c2c1-c1ccccc1OC2 | 202
CN1CCC(=O)C(C2c3ccccc3Oc3ccccc32)C1 (stereo unspecified) | 160 to 162
Cc1oc(-c2ccccc2)nc1COc1ccc(CON=C(CCC(=O)O)c2ccco2)cc1 | 124 to 125
